# According to ChEMBL document CHEMBL5236667, “Synthesis of pyrrolo[3,2-d]pyrimidineone derivatives as novel FXa inhibitors” (Bioorg Med Chem Lett, 2023):
# Calls of active or inactive are those of the source. The calls are words filed in the database; no cut-off is given here.
# Assays:
# Rattus norvegicus [1] = assay: Antithrombotic activity in […]-induced venous thrombosis rat model assessed as thrombus inhibition rate at 1 mg/kg relative to control; assay type: functional
# Coagulation factor X [2] = biological target: T1, Coagulation factor X (Homo sapiens, UniProt P00742); assay: Inhibition of factor Xa (unknown origin) assessed as residual enzymatic activity at 20 nM
# Oryctolagus cuniculus [3] = organism: Oryctolagus cuniculus; assay: Anticoagulant activity in rabbit plasma assessed as T/C ratio of prothrombin time (reference value: 1); assay type: functional
# Rattus norvegicus [4] = assay: Antithrombotic activity in FlC3-induced venous thrombosis rat model assessed as reduction in thrombus weight at 1 mg/kg (reference value: 9.7 +/- 1.62 mg); assay type: functional
# Coagulation factor X [5] = biological target: T1, Coagulation factor X; assay: Potency index, ratio of rivaroxaban IC50 to test compound IC50 for inhibition of factor Xa (unknown origin)
# Coagulation factor X [6] = biological target: T1, Coagulation factor X; assay: Inhibition of factor Xa (unknown origin)
# Rattus norvegicus [7] = assay: Antithrombotic activity in […]-induced venous thrombosis rat model assessed as reduction in thrombus weight at 1 mg/kg (reference value: 7.79 +/- 1.62 mg); assay type: functional
# Rattus norvegicus [8] = assay: Antithrombotic activity in […]-induced venous thrombosis rat model assessed as thrombus inhibition rate at 0.5 mg/kg relative to control; assay type: functional
# Rattus norvegicus [9] = assay: Antithrombotic activity in […]-induced venous thrombosis rat model assessed as reduction in thrombus weight at 0.5 mg/kg (reference value: 9.7 +/- 1.62 mg); assay type: functional
# Rattus norvegicus [10] = assay: Antithrombotic activity in […]-induced venous thrombosis rat model assessed as thrombus inhibition rate at 2 mg/kg relative to control; assay type: functional
# Rattus norvegicus [11] = assay: Antithrombotic activity in […]-induced venous thrombosis rat model assessed as reduction in thrombus weight at 2 mg/kg (reference value: 9.7 +/- 1.62 mg); assay type: functional
# Oryctolagus cuniculus [12] = organism: Oryctolagus cuniculus; assay: Anticoagulant activity in rabbit plasma assessed as increase in prothrombin time at 20 to 62500 nM; assay type: functional; conditions: dose 20-62500 nM
# T1 sequence (P00742 41-179 limits assumed): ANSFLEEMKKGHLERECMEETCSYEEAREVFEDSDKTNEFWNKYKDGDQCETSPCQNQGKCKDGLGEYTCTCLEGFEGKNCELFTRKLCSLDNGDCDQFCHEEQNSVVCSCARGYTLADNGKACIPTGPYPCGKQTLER
# T1 sequence (P00742 235-488 limits assumed): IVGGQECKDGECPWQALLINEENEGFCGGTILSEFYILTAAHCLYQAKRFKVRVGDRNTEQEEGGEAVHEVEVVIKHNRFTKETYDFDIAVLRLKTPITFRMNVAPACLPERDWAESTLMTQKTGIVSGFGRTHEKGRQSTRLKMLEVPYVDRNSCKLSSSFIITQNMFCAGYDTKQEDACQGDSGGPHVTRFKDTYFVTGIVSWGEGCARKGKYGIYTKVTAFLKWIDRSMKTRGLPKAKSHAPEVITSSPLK
SMILES,inhibition in vivo at 1 mg/kg (Rattus norvegicus [1]) [%],Activity (Coagulation factor X [2]) [%],T/C (Oryctolagus cuniculus [3]),Activity (Rattus norvegicus [4]) [mg],Ratio IC50 (Coagulation factor X [5]),IC50 (Coagulation factor X [6]) [nM],Activity (Rattus norvegicus [7]) [mg],inhibition in vivo at 0.5 mg/kg (Rattus norvegicus [8]) [%],Activity (Rattus norvegicus [9]) [mg],inhibition in vivo at 2 mg/kg (Rattus norvegicus [10]) [%],Activity (Rattus norvegicus [11]) [mg],Activity (Oryctolagus cuniculus [12])
O=C(NC[C@H]1CN(c2ccc(N3CCOCC3=O)cc2)C(=O)O1)c1ccc(Cl)s1 [RIVAROXABAN],75,45.8,2.03,2.41,,,,,,,,
COc1ccc(-n2cc(C#N)c3ncn(-c4ccc(N5CCC[C@H]5C(N)=O)cc4)c(=O)c32)cc1,53,45.8,1.67,,4,3.69,3.65,,,,,
COc1ccc(-n2nc(C(N)=O)c3c2C(=O)N(c2ccc(N4CCCCC4=O)cc2)CC3)cc1 [APIXABAN],58,,,,,,3.24,66,3.33,,,
COc1ccc(-n2cc(C(N)=O)c3ncn(-c4ccc(N5CCOCC5=O)cc4)c(=O)c32)cc1,65,46.7,1.99,3.05,9,1.57,2.73,45,5.36,73,2.6,Active
COc1ccc(-n2cc(C#N)c3ncn(-c4ccc(N5CCOCC5=O)cc4)c(=O)c32)cc1,,59.8,1.88,,,,,,,,,Active
